Assay results taken from PMC9728921, “Characterization of a KDM5 small molecule inhibitor with antiviral activity against hepatitis B virus” (PLOS ONE, 2022).
Blank lines part the entries; values can stand above or below the compound they belong to.

Key:
KDM5B = molecular target: T1, KDM5B (Homo sapiens, UniProt Q9UGL1); assay: KDM5B enzymatic assay (CisBio HTRF); assay type: biochemical
T1 construct: purchased Reaction Biology Corp (assay run there as a contract service)
Experimental: (§1) KDM5A and 5B were tested using CisBio HTRF assay platform by Reaction Biology Corp (Malvern, PA). All concentrations are final unless noted otherwise. Inhibitors were pre-incubated with 2.5 nM KDM5A or 1.2 nM KDM5B in a 5 μL reaction mixture containing 50 mM HEPES (pH 7.5), 50 mM NaCl, 0.01% Tween 20, 0.01% BSA for 15 min temperature. The reaction was initiated by addition of 5 μL of 50 nM Biotin-H3K4me3 and incubated with gentle shaking for 45 min at RT. The reaction was quenched with 10 mM EDTA and 200 mM potassium fluoride. Upon addition of Eu-Antibody and Streptavidine-XL665, the mixture was incubated for 2 hours in the dark. The fluorescence resonance energy transfer was measured using an excitation wavelength of 320 nm and emission wavelength of 665 nm on an Envision plate reader (Perkin Elmer).
(§2) Data was analyzed using GraphPad Prism 6.0 (La Jolla, CA). […] IC50 values were calculated as an average of at least two independent experiments.

HBV (genotype C, GTC) = test system: HBV (genotype C, GTC); set-up: method as in PMID 31226346; settings: humanized mouse model of HBV infection; cited from earlier work
KDM6B = KDM6B (Homo sapiens, UniProt O15054); assay: KDM6B enzymatic assay (AlphaLISA); assay type: biochemical
Experimental: (§3) The following assay protocol was used for all histone demethylases tested except KDM1A, KDM5A, B, and D, which are described below. Compounds were serially diluted into a 384-well Alpha plate as a DMSO solution and mixed with 5 μL reaction buffer (buffer A) containing 50 mM HEPES (pH 7.0), 0.1% BSA, and 0.003% Tween-20. The enzyme of interest was pre-incubated with 15 μM of Fe^2+ for 10 min (except 30 min for KDM2B) in reaction buffer A. 5 μL of the enzyme mixture was added to each of the compound-containing wells and incubated for 10 min. The reaction was started by addition of a 5 μL mixture containing 300 nM peptide substrate, 75 μM L-ascorbic acid, and 30 μM α-ketoglutarate in buffer A. This final 15 μL of reaction mixture was incubated for 20 min for KDM5B and 1 hour for the other KDM enzymes. The reaction was quenched with 10 μL of diluted AlphaLISA Acceptor beads (1:400) in Epigenetics Buffer and incubated for 60 min. The Donor beads were diluted 1:400 into Epigenetics Buffer in the dark and 10 μL of this was added to each well and incubated for another 60 min in the dark. The assay plates were read on an Enspire plate reader (PerkinElmer) using a standard AlphaLISA program.
as §2

KDM7B = KDM7B (Homo sapiens, UniProt Q9UPP1); assay: KDM7B enzymatic assay (AlphaLISA); assay type: biochemical; settings: enzyme concentration 2.5 nM
KDM7B, sequence (Q9UPP1 whole entry): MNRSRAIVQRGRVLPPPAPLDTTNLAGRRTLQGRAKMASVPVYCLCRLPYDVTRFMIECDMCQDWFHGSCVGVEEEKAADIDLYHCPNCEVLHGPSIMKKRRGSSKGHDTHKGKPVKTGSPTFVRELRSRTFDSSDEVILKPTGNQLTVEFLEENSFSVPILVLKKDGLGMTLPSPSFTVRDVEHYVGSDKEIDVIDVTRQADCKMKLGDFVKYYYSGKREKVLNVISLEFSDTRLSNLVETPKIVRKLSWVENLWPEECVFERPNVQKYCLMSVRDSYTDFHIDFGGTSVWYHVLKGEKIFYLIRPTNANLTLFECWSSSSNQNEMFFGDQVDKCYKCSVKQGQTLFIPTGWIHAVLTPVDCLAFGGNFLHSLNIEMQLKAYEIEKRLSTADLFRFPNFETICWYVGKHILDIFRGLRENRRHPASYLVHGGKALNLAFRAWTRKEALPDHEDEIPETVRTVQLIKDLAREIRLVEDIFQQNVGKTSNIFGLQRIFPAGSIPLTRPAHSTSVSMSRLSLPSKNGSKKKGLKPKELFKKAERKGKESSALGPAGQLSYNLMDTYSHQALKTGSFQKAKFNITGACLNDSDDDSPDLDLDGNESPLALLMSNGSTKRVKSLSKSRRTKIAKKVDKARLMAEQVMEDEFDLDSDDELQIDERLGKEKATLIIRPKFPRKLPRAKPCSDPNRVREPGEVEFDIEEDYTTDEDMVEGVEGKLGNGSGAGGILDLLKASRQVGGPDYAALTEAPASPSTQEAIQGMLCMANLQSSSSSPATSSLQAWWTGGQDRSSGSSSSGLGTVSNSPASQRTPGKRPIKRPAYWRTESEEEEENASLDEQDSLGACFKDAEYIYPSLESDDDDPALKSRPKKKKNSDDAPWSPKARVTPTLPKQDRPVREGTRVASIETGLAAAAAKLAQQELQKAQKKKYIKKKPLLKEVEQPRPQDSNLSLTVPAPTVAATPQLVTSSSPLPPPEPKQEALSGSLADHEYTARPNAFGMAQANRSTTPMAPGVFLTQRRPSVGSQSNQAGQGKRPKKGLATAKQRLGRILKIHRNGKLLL
Experimental: as §3, §2

Cytotoxicity CC50, MT-4 = assay type: cell-based; settings: human, MT-4 cells (T-lymphoblastoid cell line)
Excerpt: (§4) a Values represent the geometric mean and multiplicative standard deviation of 3 – 5 primary human hepatocyte (PHH) donors or 5 – 10 independent experiments.
(§5) b MT-4: human T-lymphoblastoid cell line; PBMC: peripheral blood mononuclear cell; Gal-HepG2: galactose adapted human hepatoblastoma cell line; Huh-7: human hepatoma cell line; Gal-PC3: galactose adapted human prostate carcinoma cell line; MRC-5: Medical Research Council 5 embryonal lung fibroblast; NRVM: neonatal rat ventricular cardiomyocytes

Cytotoxicity CC50, PBMC = assay type: cell-based; settings: human, PBMC (peripheral blood mononuclear cells)
Excerpt: as §4, §5

[1] = Cytotoxicity CC50, Gal-HepG2; assay type: cell-based; settings: human, Gal-HepG2 cells (galactose adapted hepatoblastoma cell line)
Excerpt: as §4, §5

Cytotoxicity CC50, Huh-7 = assay type: cell-based; settings: human, Huh-7 cells (hepatoma cell line)
Excerpt: as §4, §5

Cytotoxicity CC50, PHH = assay type: cell-based; settings: human, primary human hepatocytes (PHH)
Excerpt: as §4, §5

[2] = Cytotoxicity CC50, Gal-PC3; assay type: cell-based; settings: human
Excerpt: as §4, §5

Cytotoxicity CC50, MRC-5 = assay type: cell-based; settings: human, MRC-5 cells (embryonal lung fibroblasts)
Excerpt: as §4, §5

Cytotoxicity CC50, NRVM = assay type: cell-based; settings: rat, NRVM (neonatal rat ventricular cardiomyocytes)
Excerpt: as §4, §5

NSD1 = molecular target: T2, NSD1 (Homo sapiens, UniProt Q96L73); assay: Histone methyltransferase enzymatic assay, NSD1; assay type: biochemical; settings: enzyme conc. 50 nM
T2 construct: 1538-2696; purchased RBC (read as Reaction Biology Corporation, named)
Experimental: (§6) Histone methyltransferase assays were performed in 96-well half-area optiplates (PerkinElmer) at room temperature. All concentrations are final unless noted otherwise. Compounds were serially diluted in DMSO and the final DMSO concentration was 1%. A 24 μL reaction mixture contained compound, enzyme, 200 nM of nucleosome or histone substrate, 400 nM ^3H-SAM (83.1 Ci/mmol), 50 mM Tris-HCl (pH 8.0), 50 mM NaCl, 5 mM MgCl2, 1 mM DTT, and 0.01% Tween-20. The plate was sealed, mixed on a Titramax plate shaker at 1200 rpm for 30 sec, and incubated at room temperature for 60 min. The reaction was quenched by addition of 24 μL mixture containing 5 mg/mL PVT-PEI beads and 300 μM unlabeled SAM in water. The plate was sealed, mixed as previously noted, incubated overnight, and read on a TopCount plate reader (PerkinElmer).
as §2

NSD3 = molecular target: T3, NSD3 (Homo sapiens, UniProt Q9BZ95); assay: Histone methyltransferase enzymatic assay, NSD3; assay type: biochemical; settings: enzyme conc. 100 nM
T3 construct: 1021-1322; purchased RBC (read as Reaction Biology Corporation, named)
T3 sequence (Q9BZ95 1021-1322): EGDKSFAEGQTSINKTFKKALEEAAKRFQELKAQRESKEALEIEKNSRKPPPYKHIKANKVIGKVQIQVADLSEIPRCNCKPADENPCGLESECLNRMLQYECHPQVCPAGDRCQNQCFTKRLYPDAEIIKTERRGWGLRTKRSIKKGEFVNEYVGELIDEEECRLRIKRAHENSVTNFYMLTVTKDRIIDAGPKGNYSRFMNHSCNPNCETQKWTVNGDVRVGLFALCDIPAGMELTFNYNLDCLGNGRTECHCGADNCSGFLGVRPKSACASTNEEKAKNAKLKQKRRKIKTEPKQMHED
Experimental: as §6, §2

SET7/9 = molecular target: T4, SET7/9 (Homo sapiens, UniProt Q8WTS6); assay: Histone methyltransferase enzymatic assay, SET7/9; assay type: biochemical; settings: enzyme conc. 100 nM
T4 construct: 2-366; purchased RBC (read as Reaction Biology Corporation, named)
T4 sequence (Q8WTS6 2-366): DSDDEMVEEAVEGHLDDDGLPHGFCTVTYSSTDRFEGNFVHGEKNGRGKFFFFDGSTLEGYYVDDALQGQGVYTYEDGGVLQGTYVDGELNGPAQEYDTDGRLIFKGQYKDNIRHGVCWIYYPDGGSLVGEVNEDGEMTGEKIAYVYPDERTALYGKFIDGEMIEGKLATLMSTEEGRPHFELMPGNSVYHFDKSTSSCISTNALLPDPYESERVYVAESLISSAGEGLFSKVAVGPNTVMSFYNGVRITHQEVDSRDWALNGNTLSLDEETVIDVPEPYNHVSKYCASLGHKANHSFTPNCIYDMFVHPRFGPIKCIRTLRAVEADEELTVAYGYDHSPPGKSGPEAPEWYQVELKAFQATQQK
Experimental: as §6, §2

GLP = molecular target: T5, GLP (Homo sapiens, UniProt Q9H9B1); assay: Histone methyltransferase enzymatic assay, GLP; assay type: biochemical
T5 construct: 894-1298; purchased RBC (read as Reaction Biology Corporation, named)
T5 sequence (Q9H9B1 894-1298): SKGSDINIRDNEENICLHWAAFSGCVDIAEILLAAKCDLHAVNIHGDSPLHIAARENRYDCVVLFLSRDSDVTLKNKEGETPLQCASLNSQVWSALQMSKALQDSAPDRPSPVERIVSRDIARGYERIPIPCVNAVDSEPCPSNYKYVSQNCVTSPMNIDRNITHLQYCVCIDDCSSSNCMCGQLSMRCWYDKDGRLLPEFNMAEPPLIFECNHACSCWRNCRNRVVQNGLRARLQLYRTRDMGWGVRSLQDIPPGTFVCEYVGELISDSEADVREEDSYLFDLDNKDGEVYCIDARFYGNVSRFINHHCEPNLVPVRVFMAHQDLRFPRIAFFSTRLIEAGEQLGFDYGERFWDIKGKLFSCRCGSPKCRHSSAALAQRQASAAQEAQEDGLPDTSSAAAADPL
Experimental: as §6, §2

SETDB1 = molecular target: T6, SETDB1 (Homo sapiens, UniProt Q15047); assay: Histone methyltransferase enzymatic assay, SETDB1; assay type: biochemical; settings: enzyme conc. 100 nM
T6 construct: 510-1290
Experimental: as §6, §2

KDM5A = molecular target: T7, KDM5A (Homo sapiens, UniProt P29375); assay: KDM5A enzymatic assay (CisBio HTRF); assay type: biochemical; settings: enzyme concentration 2.5 nM; IC50 lower than enzyme concentration, likely underestimates potency
T7 construct: purchased Reaction Biology Corp (assay run there as a contract service)
Experimental: as §1, §2

KDM4B = molecular target: T8, KDM4B (Homo sapiens, UniProt O94953); assay: KDM4B enzymatic assay (AlphaLISA); assay type: biochemical; settings: enzyme concentration 1 nM
T8 sequence (O94953 1-1096): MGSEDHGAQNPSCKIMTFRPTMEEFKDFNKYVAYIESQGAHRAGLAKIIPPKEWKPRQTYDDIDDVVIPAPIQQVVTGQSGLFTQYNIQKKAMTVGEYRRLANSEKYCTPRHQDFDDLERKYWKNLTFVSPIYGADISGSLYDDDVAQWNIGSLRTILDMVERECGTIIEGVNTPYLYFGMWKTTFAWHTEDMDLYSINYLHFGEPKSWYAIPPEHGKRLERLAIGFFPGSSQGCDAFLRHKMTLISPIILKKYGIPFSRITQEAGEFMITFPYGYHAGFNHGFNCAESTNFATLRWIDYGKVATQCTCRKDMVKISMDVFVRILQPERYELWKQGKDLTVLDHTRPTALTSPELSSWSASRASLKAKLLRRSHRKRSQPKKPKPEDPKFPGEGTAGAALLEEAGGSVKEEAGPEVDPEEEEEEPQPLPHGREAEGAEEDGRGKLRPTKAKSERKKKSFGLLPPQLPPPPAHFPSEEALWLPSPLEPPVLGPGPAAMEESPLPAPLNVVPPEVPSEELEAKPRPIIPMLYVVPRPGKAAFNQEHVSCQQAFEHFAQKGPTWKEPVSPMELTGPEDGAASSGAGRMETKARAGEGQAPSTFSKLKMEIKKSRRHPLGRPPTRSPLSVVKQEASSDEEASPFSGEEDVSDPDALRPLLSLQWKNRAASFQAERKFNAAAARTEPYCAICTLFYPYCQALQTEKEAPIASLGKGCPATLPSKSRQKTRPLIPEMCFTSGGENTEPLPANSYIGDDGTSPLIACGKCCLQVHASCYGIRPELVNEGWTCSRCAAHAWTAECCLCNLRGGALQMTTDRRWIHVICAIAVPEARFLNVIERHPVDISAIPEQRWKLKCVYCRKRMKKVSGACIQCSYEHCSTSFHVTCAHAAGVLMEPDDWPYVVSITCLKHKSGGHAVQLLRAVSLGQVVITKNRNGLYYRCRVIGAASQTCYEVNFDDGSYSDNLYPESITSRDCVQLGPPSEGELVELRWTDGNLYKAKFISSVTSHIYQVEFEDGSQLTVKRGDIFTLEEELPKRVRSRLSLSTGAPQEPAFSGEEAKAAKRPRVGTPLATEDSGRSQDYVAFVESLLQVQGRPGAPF
Experimental: as §3, §2

KDM2B = molecular target: T9, KDM2B (Homo sapiens, UniProt Q8NHM5); assay: KDM2B enzymatic assay (AlphaLISA); assay type: biochemical; settings: enzyme concentration 2 nM
T9 sequence (Q8NHM5 1-1336): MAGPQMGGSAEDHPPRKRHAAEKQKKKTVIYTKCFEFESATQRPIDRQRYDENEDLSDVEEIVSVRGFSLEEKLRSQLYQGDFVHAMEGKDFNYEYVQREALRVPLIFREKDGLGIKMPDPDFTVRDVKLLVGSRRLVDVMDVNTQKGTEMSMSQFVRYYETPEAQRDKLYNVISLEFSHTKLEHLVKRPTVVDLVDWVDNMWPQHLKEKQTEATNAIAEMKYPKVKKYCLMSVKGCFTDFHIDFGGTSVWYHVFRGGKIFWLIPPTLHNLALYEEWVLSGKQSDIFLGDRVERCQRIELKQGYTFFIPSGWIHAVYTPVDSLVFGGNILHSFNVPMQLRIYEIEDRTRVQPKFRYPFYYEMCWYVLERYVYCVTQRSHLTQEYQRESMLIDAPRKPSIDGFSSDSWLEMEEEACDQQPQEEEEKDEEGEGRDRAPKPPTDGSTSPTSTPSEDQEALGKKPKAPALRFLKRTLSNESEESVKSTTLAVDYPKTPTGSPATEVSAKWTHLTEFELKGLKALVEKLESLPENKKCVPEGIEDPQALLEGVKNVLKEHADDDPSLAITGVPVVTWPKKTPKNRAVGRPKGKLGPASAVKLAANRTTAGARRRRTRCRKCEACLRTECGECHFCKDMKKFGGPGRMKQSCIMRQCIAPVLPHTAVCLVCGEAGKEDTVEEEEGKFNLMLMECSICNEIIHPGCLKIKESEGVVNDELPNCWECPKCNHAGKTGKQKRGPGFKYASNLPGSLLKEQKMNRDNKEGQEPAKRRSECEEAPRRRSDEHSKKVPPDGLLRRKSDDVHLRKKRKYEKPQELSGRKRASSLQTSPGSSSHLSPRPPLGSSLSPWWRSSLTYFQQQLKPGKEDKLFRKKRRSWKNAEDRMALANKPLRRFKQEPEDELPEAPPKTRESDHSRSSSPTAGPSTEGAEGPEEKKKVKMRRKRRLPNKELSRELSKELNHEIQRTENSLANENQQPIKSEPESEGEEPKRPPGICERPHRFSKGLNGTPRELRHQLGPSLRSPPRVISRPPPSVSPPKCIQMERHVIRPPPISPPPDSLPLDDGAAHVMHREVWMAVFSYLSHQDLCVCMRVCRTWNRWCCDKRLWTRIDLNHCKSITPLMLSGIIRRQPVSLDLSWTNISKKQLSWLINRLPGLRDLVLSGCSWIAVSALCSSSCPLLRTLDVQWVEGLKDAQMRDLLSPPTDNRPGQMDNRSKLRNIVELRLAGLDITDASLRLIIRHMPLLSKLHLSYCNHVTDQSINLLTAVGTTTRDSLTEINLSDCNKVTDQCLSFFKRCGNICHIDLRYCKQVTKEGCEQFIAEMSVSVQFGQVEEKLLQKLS
Experimental: as §3, §2

KDM6A = KDM6A (Homo sapiens, UniProt O15550); assay: KDM6A enzymatic assay (AlphaLISA); assay type: biochemical; settings: enzyme concentration 2 nM
KDM6A, sequence (O15550 whole entry): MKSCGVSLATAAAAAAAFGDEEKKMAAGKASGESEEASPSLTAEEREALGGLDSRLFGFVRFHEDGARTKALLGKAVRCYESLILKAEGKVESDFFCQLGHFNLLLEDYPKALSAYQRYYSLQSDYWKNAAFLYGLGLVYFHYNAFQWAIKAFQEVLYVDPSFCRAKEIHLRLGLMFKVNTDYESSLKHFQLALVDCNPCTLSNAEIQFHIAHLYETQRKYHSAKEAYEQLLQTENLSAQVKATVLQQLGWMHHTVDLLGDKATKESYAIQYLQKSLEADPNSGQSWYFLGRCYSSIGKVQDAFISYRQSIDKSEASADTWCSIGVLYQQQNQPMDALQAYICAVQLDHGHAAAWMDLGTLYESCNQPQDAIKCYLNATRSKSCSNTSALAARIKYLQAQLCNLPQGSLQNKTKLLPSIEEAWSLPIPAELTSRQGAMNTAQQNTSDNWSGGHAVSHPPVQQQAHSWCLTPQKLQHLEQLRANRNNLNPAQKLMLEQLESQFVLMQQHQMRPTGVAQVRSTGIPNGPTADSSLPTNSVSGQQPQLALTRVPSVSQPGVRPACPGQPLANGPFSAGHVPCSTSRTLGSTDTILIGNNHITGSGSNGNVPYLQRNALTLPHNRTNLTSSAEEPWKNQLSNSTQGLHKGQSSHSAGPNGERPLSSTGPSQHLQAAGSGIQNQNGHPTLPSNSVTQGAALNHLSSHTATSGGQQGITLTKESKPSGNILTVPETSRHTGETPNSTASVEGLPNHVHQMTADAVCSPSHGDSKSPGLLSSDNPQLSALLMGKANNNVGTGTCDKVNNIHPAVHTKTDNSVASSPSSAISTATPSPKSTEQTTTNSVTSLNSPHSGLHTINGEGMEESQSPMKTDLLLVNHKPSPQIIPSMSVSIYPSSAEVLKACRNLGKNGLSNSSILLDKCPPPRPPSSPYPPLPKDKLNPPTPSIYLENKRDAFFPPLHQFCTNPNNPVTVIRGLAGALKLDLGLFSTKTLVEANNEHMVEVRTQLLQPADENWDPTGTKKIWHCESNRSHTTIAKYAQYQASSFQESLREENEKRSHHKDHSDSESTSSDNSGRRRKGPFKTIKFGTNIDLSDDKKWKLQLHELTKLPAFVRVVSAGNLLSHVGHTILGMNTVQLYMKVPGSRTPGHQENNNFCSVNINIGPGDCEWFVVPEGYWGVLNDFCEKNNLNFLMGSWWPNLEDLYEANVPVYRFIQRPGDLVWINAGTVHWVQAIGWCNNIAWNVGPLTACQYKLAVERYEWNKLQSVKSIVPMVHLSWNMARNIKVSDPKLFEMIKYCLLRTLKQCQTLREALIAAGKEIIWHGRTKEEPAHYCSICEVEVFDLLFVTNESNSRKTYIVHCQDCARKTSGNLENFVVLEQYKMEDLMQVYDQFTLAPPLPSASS
Experimental: as §3, §2

T1 sequence (Q9UGL1 whole entry): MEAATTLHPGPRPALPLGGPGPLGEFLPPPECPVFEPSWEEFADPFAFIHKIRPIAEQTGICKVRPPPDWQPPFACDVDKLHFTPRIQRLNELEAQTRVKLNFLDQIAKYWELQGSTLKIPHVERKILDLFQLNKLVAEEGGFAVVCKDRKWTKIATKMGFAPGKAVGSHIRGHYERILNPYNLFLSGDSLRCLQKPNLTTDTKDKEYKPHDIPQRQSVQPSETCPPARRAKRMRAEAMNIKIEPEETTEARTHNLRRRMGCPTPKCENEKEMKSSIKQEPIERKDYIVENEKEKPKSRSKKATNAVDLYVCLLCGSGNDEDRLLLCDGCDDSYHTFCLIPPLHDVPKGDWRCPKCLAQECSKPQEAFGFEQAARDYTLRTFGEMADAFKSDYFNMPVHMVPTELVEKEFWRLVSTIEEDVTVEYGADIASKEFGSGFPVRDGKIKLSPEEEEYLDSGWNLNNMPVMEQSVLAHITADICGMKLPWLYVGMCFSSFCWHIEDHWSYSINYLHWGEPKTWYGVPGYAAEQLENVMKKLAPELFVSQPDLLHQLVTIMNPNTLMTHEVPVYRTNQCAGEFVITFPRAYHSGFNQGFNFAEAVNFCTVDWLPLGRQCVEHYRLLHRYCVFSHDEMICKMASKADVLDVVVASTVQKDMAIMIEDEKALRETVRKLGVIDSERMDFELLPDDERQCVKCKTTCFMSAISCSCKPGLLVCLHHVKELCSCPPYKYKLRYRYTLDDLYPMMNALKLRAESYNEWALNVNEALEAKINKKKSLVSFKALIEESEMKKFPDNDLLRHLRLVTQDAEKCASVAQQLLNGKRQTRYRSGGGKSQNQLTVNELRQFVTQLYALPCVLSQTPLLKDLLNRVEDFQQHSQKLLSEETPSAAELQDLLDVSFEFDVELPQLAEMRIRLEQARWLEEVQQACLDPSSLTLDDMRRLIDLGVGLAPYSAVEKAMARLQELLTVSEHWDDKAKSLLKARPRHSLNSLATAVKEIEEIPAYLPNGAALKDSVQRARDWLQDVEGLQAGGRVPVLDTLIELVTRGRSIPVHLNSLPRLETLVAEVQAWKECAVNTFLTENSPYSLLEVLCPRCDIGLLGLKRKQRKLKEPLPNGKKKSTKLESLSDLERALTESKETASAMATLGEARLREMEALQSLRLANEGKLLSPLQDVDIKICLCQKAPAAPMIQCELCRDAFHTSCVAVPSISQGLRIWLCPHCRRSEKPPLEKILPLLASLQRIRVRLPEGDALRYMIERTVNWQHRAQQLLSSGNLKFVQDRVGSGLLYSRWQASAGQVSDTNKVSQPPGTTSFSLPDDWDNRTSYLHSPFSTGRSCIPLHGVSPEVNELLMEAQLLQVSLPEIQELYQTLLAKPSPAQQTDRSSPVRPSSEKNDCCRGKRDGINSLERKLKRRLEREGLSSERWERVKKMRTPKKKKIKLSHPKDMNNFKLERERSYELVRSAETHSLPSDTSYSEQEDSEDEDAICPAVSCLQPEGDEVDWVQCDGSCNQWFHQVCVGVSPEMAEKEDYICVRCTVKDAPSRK

fold reduced KDM5B inhibitory activity over GS-080 (KDM5B; IC50 for KDM5B compared with GS-080): 7000 fold | IC50 (KDM5B; enzyme concentration 1.2 nM, IC50 lower than enzyme concentration, likely underestimates potency): 2.76 µM
Compound: CCN(CCN(C)C)C(=O)CNCc1cc(C(=O)O)c(Br)cn1 [GS-444]

Compound: CC1=C(/C=C/C(C)=C/C=C/C(C)=C\C(=O)O)C(C)(C)CCC1 [Accutane]
in vivo antiviral activity (HBV (genotype C, GTC)): lack of in vivo antiviral activity

Compound: Oc1cccc2cccnc12 [8-OH Quinoline, 8-hydroxyquinoline, reference compound]
IC50 (KDM6B): 6.4 µM | IC50 (KDM7B): 13 µM

Compound: COc1ccc(C[C@H](N)C(=O)N[C@H]2[C@@H](O)[C@H](n3cnc4c(N(C)C)ncnc43)O[C@@H]2CO)cc1 [Puromycin, reference compound]
CC50 (Cytotoxicity CC50, MT-4): 0.1 µM | CC50 (Cytotoxicity CC50, PBMC): 0.61 ± 1.3 µM | CC50 [1]: 1.3 ± 1.4 µM | CC50 (Cytotoxicity CC50, Huh-7): 0.67 ± 1.5 µM | CC50 (Cytotoxicity CC50, PHH): 1.6 ± 1.8 µM | CC50 [2]: 0.44 µM | CC50 (Cytotoxicity CC50, MRC-5): 0.35 µM | CC50 (Cytotoxicity CC50, NRVM): 0.57 ± 1.4 µM

IC50 (NSD1): 93 µM | IC50 (NSD3): 15 µM | IC50 (SET7/9): 70 µM | IC50 (GLP): 2.2 µM | IC50 (SETDB1): 17 µM
Compound: Nc1ncnc2c1ncn2[C@@H]1O[C@H](CSCC[C@H](N)C(=O)O)[C@@H](O)[C@H]1O [SAH, S-(5′-Adenosyl)-L-homocysteine, reference compound]

IC50 (KDM5A): 0.41 µM | IC50 (KDM4B): 0.86 µM | IC50 (KDM2B): 19 µM | IC50 (KDM6A): 99 µM
Compound: O=C(O)c1ccnc(C(=O)O)c1 [PDCA, 2,4-Pyridinedicarboxylic acid, reference compound]
